From ChEMBL document CHEMBL1129469, “Nonpeptide angiotensin II receptor antagonists: the next generation in antihypertensive therapy” (J Med Chem, 1996)
Changes are numbered by the printed parent chain. Blank lines part the entries; values can stand above or below the molecule they belong to.

What was measured:
[1] = target: T1, Type-1 angiotensin II receptor (Homo sapiens, UniProt P30556); assay: (§1) Inhibition of Angiotensin II receptor, type 1
T1 sequence (P30556 whole entry): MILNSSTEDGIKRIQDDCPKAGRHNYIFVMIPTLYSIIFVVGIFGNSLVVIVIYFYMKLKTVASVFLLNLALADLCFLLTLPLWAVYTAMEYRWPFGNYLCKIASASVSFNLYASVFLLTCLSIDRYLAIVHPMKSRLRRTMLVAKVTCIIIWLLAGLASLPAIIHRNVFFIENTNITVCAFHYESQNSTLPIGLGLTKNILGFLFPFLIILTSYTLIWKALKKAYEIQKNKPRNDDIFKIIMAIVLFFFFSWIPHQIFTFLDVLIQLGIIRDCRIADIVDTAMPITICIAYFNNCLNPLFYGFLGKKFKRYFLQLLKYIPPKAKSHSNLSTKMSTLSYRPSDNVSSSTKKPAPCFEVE

[2] = target: T2, Type-2 angiotensin II receptor (Homo sapiens, UniProt P50052); assay: Inhibition of Angiotensin II receptor, type 2
T2 sequence (P50052 whole entry): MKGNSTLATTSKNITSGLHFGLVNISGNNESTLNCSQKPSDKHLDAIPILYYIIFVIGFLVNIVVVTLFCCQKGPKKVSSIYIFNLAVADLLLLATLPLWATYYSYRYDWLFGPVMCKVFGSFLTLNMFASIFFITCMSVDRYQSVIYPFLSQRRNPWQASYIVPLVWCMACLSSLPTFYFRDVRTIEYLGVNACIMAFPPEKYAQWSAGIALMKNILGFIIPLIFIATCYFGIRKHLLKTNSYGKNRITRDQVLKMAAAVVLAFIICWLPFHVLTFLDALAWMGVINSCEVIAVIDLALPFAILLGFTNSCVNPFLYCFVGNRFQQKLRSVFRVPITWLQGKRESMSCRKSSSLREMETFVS

[3] = target: T3, Angiotensin II receptor (AT-1) type-1 (Rattus norvegicus, UniProt P29089+P25095); assay: Inhibitory activity against Angiotensin II receptor, type 1; type: protein assay
T3 sequence (P29089 whole entry): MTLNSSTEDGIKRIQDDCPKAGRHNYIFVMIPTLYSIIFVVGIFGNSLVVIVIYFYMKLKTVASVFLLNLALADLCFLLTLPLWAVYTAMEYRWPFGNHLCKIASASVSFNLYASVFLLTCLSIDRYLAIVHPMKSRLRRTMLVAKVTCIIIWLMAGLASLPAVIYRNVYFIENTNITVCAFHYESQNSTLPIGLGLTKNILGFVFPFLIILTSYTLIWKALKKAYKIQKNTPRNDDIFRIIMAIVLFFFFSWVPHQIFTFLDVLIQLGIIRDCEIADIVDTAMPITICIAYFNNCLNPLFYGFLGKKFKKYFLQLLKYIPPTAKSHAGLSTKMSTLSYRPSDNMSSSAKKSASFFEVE
T3 sequence (P25095 whole entry): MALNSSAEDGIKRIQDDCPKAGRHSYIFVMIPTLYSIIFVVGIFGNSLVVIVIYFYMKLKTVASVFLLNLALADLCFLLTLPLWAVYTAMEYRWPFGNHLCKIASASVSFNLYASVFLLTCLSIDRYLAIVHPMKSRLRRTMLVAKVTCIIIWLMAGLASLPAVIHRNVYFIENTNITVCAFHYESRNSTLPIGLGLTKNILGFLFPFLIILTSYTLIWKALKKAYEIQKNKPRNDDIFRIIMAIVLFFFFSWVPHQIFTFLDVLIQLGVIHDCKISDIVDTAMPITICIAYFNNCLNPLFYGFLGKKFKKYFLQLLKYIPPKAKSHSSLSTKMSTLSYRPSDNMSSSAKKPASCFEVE

[4] = target: T4, Type-2 angiotensin II receptor (Rattus norvegicus, UniProt P35351); assay: Inhibitory activity at Angiotensin II type 2 receptor.
T4 sequence (P35351 whole entry): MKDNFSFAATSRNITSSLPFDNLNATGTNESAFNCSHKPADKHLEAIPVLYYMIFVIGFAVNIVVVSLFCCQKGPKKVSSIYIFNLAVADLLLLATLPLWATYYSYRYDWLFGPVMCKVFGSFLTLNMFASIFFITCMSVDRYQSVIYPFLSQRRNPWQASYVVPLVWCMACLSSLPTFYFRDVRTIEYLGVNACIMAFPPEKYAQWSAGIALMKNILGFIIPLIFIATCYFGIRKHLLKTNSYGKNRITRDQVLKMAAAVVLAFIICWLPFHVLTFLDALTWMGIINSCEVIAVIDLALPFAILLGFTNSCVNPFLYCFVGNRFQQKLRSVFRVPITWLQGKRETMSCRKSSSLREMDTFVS

[5] = species on record: Oryctolagus cuniculus; assay: Compound was tested for its antagonistic activity against angiotensin II-induced contractions in rabbit aorta; type: functional
[6] = species on record: Rattus norvegicus; assay: Oral effective dose required for lowering blood pressure in renal hypertensive rats (RHR); type: functional
[7] = target: T3, Angiotensin II receptor (AT-1) type-1; assay: Inhibitory activity against Angiotensin II receptor type 1 in rat adrenal membrane; type: cell membranes
[8] = target: T5, Type-1 angiotensin II receptor (Oryctolagus cuniculus, UniProt P34976); assay: as §1
T5 sequence (P34976 whole entry): T1 sequence (P30556 whole entry) with I2M, V49A, I254V, I270V, R272H, R311K, T349S, A353V

[9] = target: T3, Angiotensin II receptor (AT-1) type-1; assay: Inhibitory activity against Angiotensin II receptor, type 1 in rat aortic membranes; type: cell membranes
[10] = target: T2, Type-2 angiotensin II receptor; assay: Ki value was evaluated against Angiotensin II receptor, type 2
[11] = system: Rattus norvegicus; assay: Intravenous effective dose required for lowering blood pressure in renal hypertensive rats (RHR); type: functional
[12] = target: T1, Type-1 angiotensin II receptor; assay: Ki value was evaluated against Angiotensin II receptor, type 1
[13] = Oral bioavailability in rat; type: ADME, organism-based; details: in vivo
[14] = Oral bioavailability in dog; type: ADME, organism-based, Canis lupus familiaris; details: in vivo

- IC50 [1]: 0.3 nM
- IC50 [2]: 775 nM
Structure (SMILES): CCCNC(=O)NS(=O)(=O)c1ccccc1-c1ccc(Cn2c(CCC)nc(SC)c2C(=O)O)cc1

- IC50 [1]: 1.4 nM
Structure (SMILES): CCCCOC(=O)NS(=O)(=O)c1ccc(Cc2cccc(OC)c2)cc1-c1ccc(Cn2c(CC)nc3c(C)cc(C)nc32)cc1

- IC50 [7]: 2.1 nM
Structure (SMILES): CCCc1nc(CC)c(C=O)n1Cc1ccc(-c2ccccc2-c2nn[nH]n2)cc1
- ED30 [6]: 0.027 mg/kg

- IC50 [8]: 1.9 nM
Structure (SMILES): CCCc1nc(CC)c(C=O)n1Cc1ccc(-c2ccccc2S(=O)(=O)NC(=O)c2ccccc2)cc1

- IC50 [9]: 0.8 nM
Structure (SMILES): CCCc1nc2c(n1Cc1ccc(-c3ccccc3-c3nnn[nH]3)cc1)C(=O)CCCC2 [PRATOSARTAN]

- Ki [10]: 480 nM
- Ki [12]: 29 nM
Structure (SMILES): CCCCc1nc2ccc(NC(=O)NC3CCCCC3)cc2n1Cc1ccc(-c2ccccc2C(=O)O)cc1
- ED30 [11]: ~2 mg/kg

- IC50 [8]: 5 nM
- IC50 [4]: 130 nM
Structure (SMILES): CCc1nc2c(C)cc(C)nc2n1Cc1ccc2c(ccn2C(=O)c2cccc(-c3nn[nH]n3)c2)c1

- bioavailability [13]: 12%
Structure (SMILES): CCCCc1nc(Cl)c(C(=O)O)n1Cc1ccc(-c2ccccc2-c2nn[nH]n2)cc1 [CARBOXYLIC ACID METABOLITE]
- ED30 [6]: 0.66 mg/kg
- ED30 [11]: 0.04 mg/kg

- IC50 ([3]; read-out: IC50): 0.24 nM
- bioavailability [13]: 45%
- bioavailability [14]: 34%
- IC50 [4]: 0.29 nM
Structure (SMILES): CCCc1nc2c(C)c(NC(=O)c3ccccc3)cnc2n1Cc1ccc(-c2ccccc2S(=O)(=O)NC(=O)OCCC(C)C)cc1

- IC50 ([3]; read-out: IC50): 3 nM
Structure (SMILES): CCCc1nc(C(F)(F)C(F)(F)F)c(C(=O)O)n1Cc1ccc(-c2ccccc2-c2nn[nH]n2)cc1Br

More lines, now with the values behind:

Structure (SMILES): CCc1nc2c(C)cc(C)nc2n1Cc1ccc(-c2ccccc2S(=O)(=O)NC(=O)C(c2ccccc2)c2ccccc2)cc1
- IC50 [1]: 0.05 nM
- IC50 [2]: 18 nM

Structure (SMILES): COc1ccc(Cn2cnc3c2C[C@@H](C(=O)O)N(C(=O)C(c2ccccc2)c2ccccc2)C3)cc1C
- IC50 [3]: > 100000 nM
- IC50 [4]: 70 nM

Structure (SMILES): CCc1nc2c(C)cc(CO)nc2n1Cc1ccc2oc(-c3ccccc3NS(=O)(=O)C(F)(F)F)c(Br)c2c1
- pKB [5]: 8.6

Structure (SMILES): CCCc1ccc2c(c1)-c1ccc(cc1)Cn1c(CCC)nc3ccc(cc3c1=O)NCCCCCCC(=O)NS2(=O)=O
- IC50 [1]: 4 nM
- IC50 [2]: 24 nM

Structure (SMILES): COc1ccc2c(c1OCc1ccccc1)C[C@@H](C(=O)O)N(C(=O)C(c1ccccc1)c1ccccc1)C2 [OLODANRIGAN]
- IC50 [3]: > 100000 nM

Structure (SMILES): CCCCOC(=O)NS(=O)(=O)c1sc(CC(C)C)cc1-c1ccc(Cn2c(CC)nc3c(C)cc(C)nc32)cc1
- IC50 [1]: 1.1 nM

Structure (SMILES): CCCC(=O)N(CCC(=O)c1c(CC)nc(CCC)n1Cc1ccc(-c2ccccc2S(=O)(=O)NC(=O)OCCC(C)C)cc1F)c1cccnc1
- IC50 ([3]; read-out: IC50): 0.26 nM
- ED30 [6]: 0.27 mg/kg
- IC50 [4]: 0.28 nM

Structure (SMILES): CCCCc1nc(Cl)c(CO)n1Cc1ccc(-c2ccccc2C(=O)O)cc1
- ED30 [6]: 3.7 mg/kg

Structure (SMILES): O=C(O)[C@@H]1Cc2cc(-c3ccccc3)ccc2CN1C(=O)C(c1ccccc1)c1ccccc1
- IC50 [3]: > 100000 nM
- IC50 [4]: 30 nM

Structure (SMILES): CCCCc1nc(Cl)c(CC(=O)O)n1Cc1ccc(C(=O)O)cc1
- ED30 [11]: 10 mg/kg
